In ChEMBL document CHEMBL1201862, “PubChem BioAssay data set” (2004):
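96-well plates; 48 h exposure; 5 concentrations. Endpoints by linear interpolation between flanking doses. Not reached: highest tested concentration assigned. The concentration for 50% growth inhibition is given as GI50.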 Activity calls are given as the source filed them. Cut-off read from the data, not from the text of the source: active = GI50 up to about 1.1 µM and inactive = higher.

Legend:
Assay in all cases: inhibition of tumour cell growth, NCI panel, 48 h
SR = tested on: SR
Malme-3M = tested on: Malme-3M
TK-10 = tested on: TK-10
U-251 = tested on: U-251
BT-549 = tested on: BT-549
HT-29 = tested on: HT-29
M14 = tested on: M14
A498 = tested on: A498
NCI-H226 = tested on: NCI-H226
NCI-H522 = tested on: NCI-H522
OVCAR-5 = tested on: OVCAR-5
CAKI-1 = tested on: CAKI-1
NCI-H460 = tested on: NCI-H460
COLO 205 = tested on: COLO 205
OVCAR-4 = tested on: OVCAR-4
DU-145 = tested on: DU-145
MDA-N = tested on: MDA-N
LOX IMVI = tested on: LOX IMVI
SK-MEL-28 = tested on: SK-MEL-28

SMILES	GI50 (SR)	GI50 (Malme-3M)	GI50 (TK-10)	GI50 (U-251)	GI50 (BT-549)	GI50 (HT-29)	GI50 (M14)	GI50 (A498)	GI50 (NCI-H226)	GI50 (NCI-H522)	GI50 (OVCAR-5)	GI50 (CAKI-1)	GI50 (NCI-H460)	GI50 (COLO 205)	GI50 (OVCAR-4)	GI50 (DU-145)	GI50 (MDA-N)	GI50 (LOX IMVI)	GI50 (SK-MEL-28)
CN(/N=C/c1cccc2cccnc12)c1ccc(Cl)cc1[N+](=O)[O-]	> 100 µM (inactive)	> 100 µM (inactive)	> 100 µM (inactive)	> 100 µM (inactive)	> 100 µM (inactive)	59.4 µM (inactive)	> 100 µM (inactive)	> 100 µM (inactive)	> 100 µM (inactive)	> 100 µM (inactive)	> 100 µM (inactive)	45.2 µM (inactive)	45.7 µM (inactive)	> 100 µM (inactive)	> 100 µM (inactive)	> 100 µM (inactive)	> 100 µM (inactive)	–	–
O=C(O)C(Cc1ccc2c(c1)CCC2)(Cc1ccc2c(c1)CCC2)C(=O)O	> 100 µM (inactive)	> 100 µM (inactive)	> 100 µM (inactive)	> 100 µM (inactive)	> 100 µM (inactive)	> 100 µM (inactive)	> 100 µM (inactive)	> 100 µM (inactive)	> 100 µM (inactive)	> 100 µM (inactive)	> 100 µM (inactive)	–	> 100 µM (inactive)	> 100 µM (inactive)	> 100 µM (inactive)	> 100 µM (inactive)	> 100 µM (inactive)	> 100 µM (inactive)	> 100 µM (inactive)
O=C(Nc1nncs1)NS(=O)(=O)n1cnc2ccccc21	> 100 µM (inactive)	> 100 µM (inactive)	> 100 µM (inactive)	> 100 µM (inactive)	> 100 µM (inactive)	> 100 µM (inactive)	> 100 µM (inactive)	> 100 µM (inactive)	> 100 µM (inactive)	> 100 µM (inactive)	> 100 µM (inactive)	> 100 µM (inactive)	> 100 µM (inactive)	> 100 µM (inactive)	> 100 µM (inactive)	> 100 µM (inactive)	> 100 µM (inactive)	–	> 100 µM (inactive)
CN(C)CCNS(=O)(=O)c1ccc(N)cc1	> 100 µM (inactive)	> 100 µM (inactive)	> 100 µM (inactive)	> 100 µM (inactive)	> 100 µM (inactive)	> 100 µM (inactive)	> 100 µM (inactive)	> 100 µM (inactive)	> 100 µM (inactive)	> 100 µM (inactive)	> 100 µM (inactive)	> 100 µM (inactive)	> 100 µM (inactive)	> 100 µM (inactive)	> 100 µM (inactive)	> 100 µM (inactive)	> 100 µM (inactive)	–	> 100 µM (inactive)
CCOC(=O)C(O)(CC1=NC(C(=O)OC)(C(=O)OC)C(c2cccc(C=O)c2)O1)C(=O)OCC (stereo unspecified)	> 100 µM (inactive)	–	> 100 µM (inactive)	> 100 µM (inactive)	> 100 µM (inactive)	> 100 µM (inactive)	> 100 µM (inactive)	> 100 µM (inactive)	> 100 µM (inactive)	–	> 100 µM (inactive)	> 100 µM (inactive)	> 100 µM (inactive)	> 100 µM (inactive)	> 100 µM (inactive)	> 100 µM (inactive)	> 100 µM (inactive)	> 100 µM (inactive)	> 100 µM (inactive)
Cc1ccc2c(c1)C=CC1(O2)N(c2ccccc2)C(=S)OC1(C)C (stereo unspecified)	14.5 µM (inactive)	–	> 100 µM (inactive)	83.8 µM (inactive)	> 100 µM (inactive)	41.5 µM (inactive)	43.8 µM (inactive)	> 100 µM (inactive)	> 100 µM (inactive)	–	33.7 µM (inactive)	> 100 µM (inactive)	> 100 µM (inactive)	> 100 µM (inactive)	25.8 µM (inactive)	> 100 µM (inactive)	29.1 µM (inactive)	> 100 µM (inactive)	> 100 µM (inactive)
CC(=O)O[C@H]1C(=O)[C@@]2(C)[C@H]([C@H](OC(=O)c3ccccc3)[C@]3(O)C[C@H](OC(=O)[C@H](O)[C@@H](NC(=O)c4ccoc4)c4ccccc4)C(C)=C1C3(C)C)[C@]1(OC(C)=O)CO[C@@H]1C[C@@H]2O	0.0355 µM (active)	–	0.0861 µM (active)	0.00791 µM (active)	< 0.01 µM (active)	< 0.01 µM (active)	0.09 µM (active)	0.0713 µM (active)	0.0386 µM (active)	< 0.01 µM (active)	0.0256 µM (active)	–	0.023 µM (active)	0.026 µM (active)	31.1 µM (inactive)	0.0624 µM (active)	0.00361 µM (active)	0.0215 µM (active)	0.0532 µM (active)
CC(C)(CNC(=O)/C(Cl)=C(/Cl)C(=O)O)CNC(=O)/C(Cl)=C(/Cl)C(=O)O	44.6 µM (inactive)	–	64.3 µM (inactive)	> 100 µM (inactive)	> 100 µM (inactive)	48.5 µM (inactive)	–	> 100 µM (inactive)	> 100 µM (inactive)	29.1 µM (inactive)	> 100 µM (inactive)	> 100 µM (inactive)	> 100 µM (inactive)	18.2 µM (inactive)	> 100 µM (inactive)	> 100 µM (inactive)	> 100 µM (inactive)	28.8 µM (inactive)	> 100 µM (inactive)
O=c1[nH]c(=O)n2n1C1C=CC2CC1	> 100 µM (inactive)	–	> 100 µM (inactive)	> 100 µM (inactive)	> 100 µM (inactive)	> 100 µM (inactive)	> 100 µM (inactive)	> 100 µM (inactive)	> 100 µM (inactive)	–	> 100 µM (inactive)	> 100 µM (inactive)	> 100 µM (inactive)	> 100 µM (inactive)	–	> 100 µM (inactive)	> 100 µM (inactive)	> 100 µM (inactive)	> 100 µM (inactive)
COC12C=CC(CC1)C(C)(C)C2=O (stereo unspecified)	> 100 µM (inactive)	> 100 µM (inactive)	> 100 µM (inactive)	> 100 µM (inactive)	> 100 µM (inactive)	> 100 µM (inactive)	> 100 µM (inactive)	> 100 µM (inactive)	> 100 µM (inactive)	> 100 µM (inactive)	> 100 µM (inactive)	> 100 µM (inactive)	> 100 µM (inactive)	> 100 µM (inactive)	> 100 µM (inactive)	> 100 µM (inactive)	> 100 µM (inactive)	–	> 100 µM (inactive)
N#Cc1c(Nc2nc3ccccc3s2)c2ccccc2n2c1nc1ccccc12	> 100 µM (inactive)	> 100 µM (inactive)	> 100 µM (inactive)	90.8 µM (inactive)	> 100 µM (inactive)	> 100 µM (inactive)	> 100 µM (inactive)	89.5 µM (inactive)	–	> 100 µM (inactive)	> 100 µM (inactive)	> 100 µM (inactive)	> 100 µM (inactive)	> 100 µM (inactive)	> 100 µM (inactive)	> 100 µM (inactive)	> 100 µM (inactive)	> 100 µM (inactive)	> 100 µM (inactive)
